According to PubChem BioAssay AID602254 (Broad Institute, 2012):
Activity calls are given as the source filed them.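 How the source made its calls: active means fitted half-maximal concentration no higher than twice the top valid tested dose, with signal falling; inconclusive means flat curve with 30 to 70% inhibition, or poor fit; inactive means the rest.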

Target: Golgi-associated PDZ and coiled-coil motif-containing protein (Homo sapiens) (UniProt Q9HD26)
Test: CAL PDZ domain peptide-binding inhibitors, dose response, biochemical, fluorescence polarization, untagged CAL PDZ, cherry-pick, set 2 (AID 602254);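 further: potency of inhibitors that displace the labelled peptide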
Details: Purified CAL PDZ, TMR peptide fluorescence polarization

SMILES | AC50
CN(C)S(=O)(=O)c1cccc(COc2ncnc3c(Cl)cc(Cl)cc23)c1 | > 120 µM (inactive)
CC(=O)N1CCc2cc(S(=O)(=O)NC(C(=O)NCc3ccccc3)C(C)C)ccc21 (centres undefined) | > 120 µM (inactive)
Cc1ccc2nc(COC(=O)c3ccc(Cl)nc3)cc(=O)n2c1 | > 120 µM (inactive)
Cc1ccc(C)c(NC(=O)CN(C)C(=O)c2ccc3c(=O)n4c(nc3c2)CCC4)c1 | > 120 µM (inactive)
OCCC1CN(Cc2ccc3nsnc3c2)CCN1C1CCCCC1 (centres undefined) | > 120 µM (inactive)
CCN(CC)c1ccc(N2C(=O)CSC2=S)cc1 | > 120 µM (inactive)
Cc1cc(NC(=O)c2ccc(C#N)cc2)n(-c2ccccn2)n1 | > 120 µM (inactive)
CN(Cc1ccc(Cl)s1)C(=O)CNC(=O)CNC(=O)c1ccc(Cl)cc1Cl | > 120 µM (inactive)
CCN(CC)CCn1c(=S)[nH]c2ccc(Br)cc2c1=O | > 120 µM (inactive)
Cc1c(NS(=O)(=O)c2ccc(S(=O)(=O)c3ccccc3)s2)c(=O)n(-c2ccccc2)n1C | > 120 µM (inactive)
Cc1cc(F)ccc1NC(=O)c1cc(S(=O)(=O)N2CCCC2)cn1C | > 120 µM (inactive)
Cc1cc(NC(=O)c2c(Br)c(C)nn2C)no1 | > 120 µM (inactive)
Cc1cccc(OCC(=O)OCC(=O)Nc2ccc(Cl)cn2)c1 | > 120 µM (inactive)
COc1ccc(CC2CCOC2=O)cc1 (centres undefined) | > 120 µM (inactive)
